Test results published in patent US9056876B2, “Substituted 1H-pyrazolo[3′,4′,4,5]thieno[2,3-b]pyridin-3-amine analogs as positive allosteric modulators of the muscarinic acetylcholine receptor M4” (VANDERBILT UNIVERSITY, priority 2011, dated 2015).

Molecular target: T1, mAChR M4 (UniProt P08173)
T1 construct: hM1 and hM4 cDNAs were purchased from Missouri S&T cDNA Resource
T1 sequence (P08173 1-479): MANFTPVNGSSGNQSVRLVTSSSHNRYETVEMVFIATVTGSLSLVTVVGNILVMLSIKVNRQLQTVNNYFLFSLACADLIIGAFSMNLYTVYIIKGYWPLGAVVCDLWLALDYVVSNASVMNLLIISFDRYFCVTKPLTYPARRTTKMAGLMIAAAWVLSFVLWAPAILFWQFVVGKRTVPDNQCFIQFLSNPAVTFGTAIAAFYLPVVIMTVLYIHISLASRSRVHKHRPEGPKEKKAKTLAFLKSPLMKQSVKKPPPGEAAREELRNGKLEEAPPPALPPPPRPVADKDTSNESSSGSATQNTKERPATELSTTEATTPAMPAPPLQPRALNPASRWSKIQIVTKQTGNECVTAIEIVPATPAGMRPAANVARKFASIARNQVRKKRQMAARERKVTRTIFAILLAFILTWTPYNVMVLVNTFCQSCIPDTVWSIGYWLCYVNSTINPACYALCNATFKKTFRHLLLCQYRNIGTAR
Assay: mAChR M4 cell-based functional assay (calcium mobilization, Fluo-4, FDSS)
Conditions: CHO-K1 cells; for pEC50: positive allosteric modulator activity, EC20 acetylcholine response; for EC50: positive allosteric modulator activity: concentration-dependent increase in the EC20 acetylcholine response, >10 μM estimated for low potency (no plateau)
In short: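 CHO-K1 cells stably expressing hM4 or rM4 with chimeric Gqi5, loaded with Fluo-4 AM for 50 min at 37° C. Calcium read on FDSS 6000 over 300 s: compound added at 4 s, acetylcholine EC20 at 144 s and EC80 at 230 s. Agonist, PAM (EC20 increase) and antagonist (EC80 decrease) values fitted by four-parameter logistic.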

| Compound | pEC50 | EC50 |
| --- | --- | --- |
| Cc1cc(C)c2c(n1)sc1c(N)nn(C(=O)OC(C)(C)C)c12 [Compound 125, tert-butyl 3-amino-6,8-dimethyl-1H-pyrazolo[3′,4′:4,5]thieno[2,3-b]pyridine-1-carboxylate] | <5.00 | > 10 µM |
| COc1cccc(C(=O)Nc2n[nH]c3c2sc2nc(C)cc(C)c23)c1 [Compound 127, N-(6,8-dimethyl-1H-pyrazolo[3′,4′:4,5]thieno[2,3-b]pyridin-3-yl)-3-methoxybenzamide] | <5.00 | > 10 µM |
| Cc1cc(C)c2c(n1)sc1c(NC(=O)c3ccc(F)cc3)n[nH]c12 [Compound 128, N-(6,8-dimethyl-1H-pyrazolo[3′,4′:4,5]thieno[2,3-b]pyridin-3-yl)-4-fluorobenzamide] | <5.00 | > 10 µM |
| CCCCC(=O)Nc1n[nH]c2c1sc1nc(C)cc(C)c12 [Compound 129, N-(6,8-dimethyl-1H-pyrazolo[3′,4′:4,5]thieno[2,3-b]pyridin-3-yl)pentanamide] | <5.00 | > 10 µM |
| Cc1cc(C)c2c(n1)sc1c(NC(=O)c3ccccc3)n[nH]c12 [Compound 130, N-(6,8-dimethyl-1H-pyrazolo[3′,4′:4,5]thieno[2,3-b]pyridin-3-yl)benzamide] | <5.00 | > 10 µM |
| Cc1nc2sc3c(NCCC(C)C)n[nH]c3c2c(C)c1Cl [Compound 140, 7-chloro-N-isopentyl-6,8-dimethyl-1H-pyrazolo[3′,4′:4,5]thieno[2,3-b]pyridin-3-amine] | <5.00 | > 10 µM |
| Cc1nc2sc3c(N)n[nH]c3c2c(C)c1Cl [Compound 141, 7-chloro-6,8-dimethyl-1H-pyrazolo[3′,4′:4,5]thieno[2,3-b]pyridin-3-amine] | <5.00 | > 10 µM |
| Cc1nc2sc3c(NCC4CCCCC4)n[nH]c3c2c(C)c1Cl [Compound 142, 7-chloro-N-(cyclohexylmethyl)-6,8-dimethyl-1H-pyrazolo[3′,4′:4,5]thieno[2,3-b]pyridin-3-amine] | <5.00 | > 10 µM |
| COc1ccc(CNc2n[nH]c3c2sc2nc(C)c(Cl)c(C)c23)cc1 [Compound 143, 7-chloro-N-(4-methoxybenzyl)-6,8-dimethyl-1H-pyrazolo[3′,4′:4,5]thieno[2,3-b]pyridin-3-amine] | <5.00 | > 10 µM |
| Cc1cc(C)cc(CNc2n[nH]c3c2sc2nc(C)c(Cl)c(C)c23)c1 [Compound 144, 7-chloro-N-(3,5-dimethylbenzyl)-6,8-dimethyl-1H-pyrazolo[3′,4′:4,5]thieno[2,3-b]pyridin-3-amine] | <5.00 | > 10 µM |
| Cc1nc2sc3c(NCc4ccc(F)cc4)n[nH]c3c2c(C)c1Cl [Compound 145, 7-chloro-N-(4-fluorobenzyl)-6,8-dimethyl-1H-pyrazolo[3′,4′:4,5]thieno[2,3-b]pyridin-3-amine] | <5.00 | > 10 µM |
| Cc1nc2sc3c(NCc4ccc(F)c(F)c4)n[nH]c3c2c(C)c1Cl [Compound 146, 7-chloro-N-(3,4-difluorobenzyl)-6,8-dimethyl-1H-pyrazolo[3′,4′:4,5]thieno[2,3-b]pyridin-3-amine] | <5.00 | > 10 µM |
| Cc1nc2sc3c(NCc4ccccc4F)n[nH]c3c2c(C)c1Cl [Compound 147, 7-chloro-N-(2-fluorobenzyl)-6,8-dimethyl-1H-pyrazolo[3′,4′:4,5]thieno[2,3-b]pyridin-3-amine] | <5.00 | > 10 µM |
| Cc1nc2sc3c(Nc4ccncc4)nn(C)c3c2c(C)c1Cl [Compound 148, 7-chloro-1,6,8-trimethyl-N-(pyridin-4-yl)-1H-pyrazolo[3′,4′:4,5]thieno[2,3-b]pyridin-3-amine] | <5.00 | > 10 µM |
| Cc1ccc2c(n1)sc1c(N)n[nH]c12 [Compound 149, 6-methyl-1H-pyrazolo[3′,4′:4,5]thieno[2,3-b]pyridin-3-amine] | <5.00 | > 10 µM |
| Cc1ccc2c(n1)sc1c(NC(=O)c3ccccc3)n[nH]c12 [Compound 150, N-(6-methyl-1H-pyrazolo[3′,4′:4,5]thieno[2,3-b]pyridin-3-yl)benzamide] | <5.00 | > 10 µM |
| Cc1ccc2c(n1)sc1c(NC(=O)c3ccc(Br)cc3)n[nH]c12 [Compound 151, 4-bromo-N-(6-methyl-1H-pyrazolo[3′,4′:4,5]thieno[2,3-b]pyridin-3-yl)benzamide] | <5.00 | > 10 µM |

Other lines, results leading:

| pEC50 | EC50 | Compound |
| --- | --- | --- |
| <5.00 | > 10 µM | CC(=O)Nc1n[nH]c2c1sc1nc(C)cc(C)c12 [Compound 126, N-(6,8-dimethyl-1H-pyrazolo[3′,4′:4,5]thieno[2,3-b]pyridin-3-yl)acetamide] |
| <5.00 | > 10 µM | Cc1cc(C)c2c(n1)sc1c(NC3CCN(C(C)C)CC3)n[nH]c12 [Compound 131, N-(1-isopropylpiperidin-4-yl)-6,8-dimethyl-1H-pyrazolo[3′,4′:4,5]thieno[2,3-b]pyridin-3-amine] |
| <5.00 | > 10 µM | Cc1cc(C)c2c(n1)sc1c(NC3CCCCC3)n[nH]c12 [Compound 132, N-cyclohexyl-6,8-dimethyl-1H-pyrazolo[3′,4′:4,5]thieno[2,3-b]pyridin-3-amine] |
| <5.00 | > 10 µM | Cc1cc(C)c2c(n1)sc1c(NC3CCCCCC3)n[nH]c12 [Compound 133, N-cycloheptyl-6,8-dimethyl-1H-pyrazolo[3′,4′:4,5]thieno[2,3-b]pyridin-3-amine] |
| <5.00 | > 10 µM | Cc1cc(C)c2c(n1)sc1c(NC3CCN(C)CC3)n[nH]c12 [Compound 134, 6,8-dimethyl-N-(1-methylpiperidin-4-yl)-1H-pyrazolo[3′,4′:4,5]thieno[2,3-b]pyridin-3-amine] |
| <5.00 | > 10 µM | Cc1cc(C)c2c(n1)sc1c(NC3CCCN(C(=O)OC(C)(C)C)C3)n[nH]c12 (stereo not drawn) [Compound 135, tert-butyl 3-((6,8-dimethyl-1H-pyrazolo[3′,4′:4,5]thieno[2,3-b]pyridin-3-yl)amino)piperidine-1-carboxylate] |
| <5.00 | > 10 µM | Cc1cc(C)c2c(n1)sc1c(NC3CCCNC3)n[nH]c12 (stereo not drawn) [Compound 136, 6,8-dimethyl-N-(piperidin-3-yl)-1H-pyrazolo[3′,4′:4,5]thieno[2,3-b]pyridin-3-amine] |
| <5.00 | > 10 µM | Cc1cc(C)c2c(n1)sc1c(NC3CCC(C(F)(F)F)CC3)n[nH]c12 (stereo not drawn) [Compound 137, 6,8-dimethyl-N-(4-(trifluoromethyl)cyclohexyl)-1H-pyrazolo[3′,4′:4,5]thieno[2,3-b]pyridin-3-amine] |
| <5.00 | > 10 µM | Cc1cc(C)c2c(n1)sc1c(NC3CCC(N)CC3)n[nH]c12 (stereo not drawn) [Compound 138, N1-(6,8-dimethyl-1H-pyrazolo[3′,4′:4,5]thieno[2,3-b]pyridin-3-yl)cyclohexane-1,4-diamine] |
| <5.00 | > 10 µM | Cc1cc(C)c2c(n1)sc1c(NC3CCC(NC(=O)OC(C)(C)C)CC3)n[nH]c12 (stereo not drawn) [Compound 139, tert-butyl (4-((6,8-dimethyl-1H-pyrazolo[3′,4′:4,5]thieno[2,3-b]pyridin-3-yl)amino)cyclohexyl)carbamate] |
